Reference: article doi:10.1101/2023.03.24.534094v2 (biorxiv, 2023)

What was measured:
Assay in all cases: biochemical
MST1 = target: T1, MST1 (Homo sapiens, UniProt Q13043)
T1 sequence (Q13043 1-487): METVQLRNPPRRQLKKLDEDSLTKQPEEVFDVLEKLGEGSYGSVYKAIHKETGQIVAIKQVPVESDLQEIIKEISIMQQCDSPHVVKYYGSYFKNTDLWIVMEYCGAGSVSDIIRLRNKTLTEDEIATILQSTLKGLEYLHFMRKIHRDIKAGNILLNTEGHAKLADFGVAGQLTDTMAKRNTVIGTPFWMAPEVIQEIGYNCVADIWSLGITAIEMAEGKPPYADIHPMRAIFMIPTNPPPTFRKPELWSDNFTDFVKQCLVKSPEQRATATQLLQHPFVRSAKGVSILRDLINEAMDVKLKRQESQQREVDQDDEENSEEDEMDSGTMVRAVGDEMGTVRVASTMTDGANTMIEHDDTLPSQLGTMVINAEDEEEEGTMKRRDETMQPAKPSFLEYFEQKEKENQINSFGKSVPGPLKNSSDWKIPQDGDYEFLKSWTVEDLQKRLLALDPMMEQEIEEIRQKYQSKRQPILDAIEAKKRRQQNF

MST4 = MST4 (Homo sapiens, UniProt Q9P289); conditions: 10 µM; binder
MST2 = target: T2, MST2 (Homo sapiens, UniProt Q13188); conditions: 10 µM; binder
T2 sequence (Q13188 1-491): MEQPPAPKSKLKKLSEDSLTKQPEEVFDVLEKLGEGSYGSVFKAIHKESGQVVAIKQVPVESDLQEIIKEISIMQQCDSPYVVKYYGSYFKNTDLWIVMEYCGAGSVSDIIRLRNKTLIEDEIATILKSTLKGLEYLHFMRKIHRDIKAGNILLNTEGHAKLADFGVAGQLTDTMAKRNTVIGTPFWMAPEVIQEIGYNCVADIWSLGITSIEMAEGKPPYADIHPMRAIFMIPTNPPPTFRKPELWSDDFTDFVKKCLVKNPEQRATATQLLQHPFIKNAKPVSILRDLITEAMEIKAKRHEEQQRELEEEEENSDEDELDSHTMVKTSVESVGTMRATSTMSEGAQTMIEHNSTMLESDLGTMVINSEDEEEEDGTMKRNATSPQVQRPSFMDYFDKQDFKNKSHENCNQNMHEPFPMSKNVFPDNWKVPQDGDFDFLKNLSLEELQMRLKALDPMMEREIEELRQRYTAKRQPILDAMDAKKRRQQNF

MST4, sequence (Q9P289 whole entry): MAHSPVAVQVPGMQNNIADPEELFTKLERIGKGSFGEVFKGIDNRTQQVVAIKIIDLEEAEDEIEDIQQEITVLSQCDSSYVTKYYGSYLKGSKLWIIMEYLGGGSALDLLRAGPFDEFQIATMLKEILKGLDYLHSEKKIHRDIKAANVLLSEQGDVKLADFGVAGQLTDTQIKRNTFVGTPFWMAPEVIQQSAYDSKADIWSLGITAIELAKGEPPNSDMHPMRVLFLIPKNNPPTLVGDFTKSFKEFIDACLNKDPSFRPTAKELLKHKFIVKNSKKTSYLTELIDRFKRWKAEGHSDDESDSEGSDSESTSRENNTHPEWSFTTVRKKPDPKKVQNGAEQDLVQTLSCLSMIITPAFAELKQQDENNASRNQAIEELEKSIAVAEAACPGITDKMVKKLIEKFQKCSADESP

Row | dTm MST1 (MST1; 10 µM, binder) [°C] | dTm MST4 (MST4) [°C] | dTm MST2 (MST2) [°C] | SMILES | ΔTm at 10 µM (MST1; read-out: dTm MST1) [°C]
1 |  |  |  | CN[C@@H]1C[C@H]2O[C@@](C)([C@@H]1OC)n1c3ccccc3c3c4c(c5c6ccccc6n2c5c31)C(=O)NC4 [Staurosporine] | 13.9
2 | 1.8 | 2.7 | 2.5 | CNc1ncc2cc(-c3ccc(-c4ncccc4F)cc3Cl)c(=O)n(C[C@H]3OC[C@H](N)CO3)c2n1 [compound 1, MRIA9] | 
